PubChem BioAssay AID2060483 (Molecular Pharmacology Branch, DTP, NCI, 2025)

Tested on: K24384-001-R-PDC complex spheroids, viability
Assay: Anticancer human tumor K24384-001-R-PDC patient-derived pancreatic adenocarcinoma cell line growth inhibition [GQUAD]
Settings: for IC50: curve of first compound; for viability, T/C: stronger effect = lower value
Method in brief: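 Tumor cells were grown as complex spheroids with HUVEC endothelial cells and mesenchymal stem cells as stroma. G-quadruplex stabilizers were combined with targeted agents over half-log dilutions from near the clinical Cmax, or from 10 microM.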

[1] = second compound 0.0316 µM, first compound 0.0316 µM
[2] = second compound 0.0316 µM, first compound 0.1 µM
[3] = second compound 0.0316 µM, first compound 0.316 µM
[4] = second compound 0.0316 µM, first compound 1 µM
[5] = second compound 0.0316 µM, first compound 3.16 µM
[6] = second compound 0.0316 µM, first compound 10 µM
[7] = second compound 0.1 µM, first compound 0.0316 µM
[8] = second compound 0.1 µM, first compound 0.1 µM
[9] = second compound 0.1 µM, first compound 0.316 µM
[10] = second compound 0.1 µM, first compound 1 µM
[11] = second compound 0.1 µM, first compound 3.16 µM
[12] = second compound 0.1 µM, first compound 10 µM
[13] = second compound 0.316 µM, first compound 0.0316 µM
[14] = second compound 0.316 µM, first compound 0.1 µM
[15] = second compound 0.316 µM, first compound 0.316 µM
[16] = second compound 0.316 µM, first compound 1 µM
[17] = second compound 0.316 µM, first compound 3.16 µM
[18] = second compound 0.316 µM, first compound 10 µM
[19] = second compound 1 µM, first compound 0.0316 µM
[20] = second compound 1 µM, first compound 0.1 µM
[21] = second compound 1 µM, first compound 0.316 µM
[22] = second compound 1 µM, first compound 1 µM
[23] = second compound 1 µM, first compound 3.16 µM
[24] = second compound 1 µM, first compound 10 µM
[25] = second compound 3.16 µM, first compound 0.0316 µM
[26] = second compound 3.16 µM, first compound 0.1 µM
[27] = second compound 3.16 µM, first compound 0.316 µM
[28] = second compound 3.16 µM, first compound 1 µM
[29] = second compound 3.16 µM, first compound 3.16 µM
[30] = second compound 3.16 µM, first compound 10 µM
[31] = second compound 10 µM, first compound 0.0316 µM
[32] = second compound 10 µM, first compound 0.1 µM
[33] = second compound 10 µM, first compound 0.316 µM
[34] = second compound 10 µM, first compound 1 µM
[35] = second compound 10 µM, first compound 3.16 µM
[36] = second compound 10 µM, first compound 10 µM
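Note: spheroids exposed to compounds for seven days.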

C=CC(=O)N1CCN(c2nc(=O)n(-c3c(C)ccnc3C(C)C)c3nc(-c4c(O)cccc4F)c(F)cc23)C(C)C1 (stereo unspecified) + Cc1cnc(CNC(=O)c2c(=O)c3ccc(N4CCCN(C)CC4)nc3n3c2sc2ccccc23)cn1
IC50 (second compound 0.0316 µM): > 10000 nM
IC50 (second compound 0.1 µM): 8780 nM
IC50 (second compound 0.316 µM): > 10000 nM
IC50 (second compound 1 µM): < 31.6 nM
IC50 (second compound 3.16 µM): < 31.6 nM
IC50 (second compound 10 µM): < 31.6 nM
viability, T/C [1]: 79.5%
viability, T/C [2]: 78.9%
viability, T/C [3]: 92.1%
viability, T/C [4]: 88.5%
viability, T/C [5]: 98.4%
viability, T/C [6]: 83.2%
viability, T/C [7]: 54.7%
viability, T/C [8]: 78%
viability, T/C [9]: 53.6%
viability, T/C [10]: 64.6%
viability, T/C [11]: 58.8%
viability, T/C [12]: 48.9%
viability, T/C [13]: 48.3%
viability, T/C [14]: 71.5%
viability, T/C [15]: 64.3%
viability, T/C [16]: 65.5%
viability, T/C [17]: 70.8%
viability, T/C [18]: 49.3%
viability, T/C [19]: 41%
viability, T/C [20]: 52.3%
viability, T/C [21]: 42.5%
viability, T/C [22]: 66.3%
viability, T/C [23]: 59.9%
viability, T/C [24]: 47.7%
viability, T/C [25]: 35.3%
viability, T/C [26]: 48.6%
viability, T/C [27]: 39.6%
viability, T/C [28]: 47.5%
viability, T/C [29]: 47.5%
viability, T/C [30]: 37.5%
viability, T/C [31]: 20.8%
viability, T/C [32]: 23.7%
viability, T/C [33]: 31.4%
viability, T/C [34]: 42%
viability, T/C [35]: 23.3%
viability, T/C [36]: 22.7%

CC(C)n1c(=O)n(C)c2cnc3cc(F)c(-c4ccc(OCCCN5CCCCC5)nc4)cc3c21 + Cc1cnc(CNC(=O)c2c(=O)c3ccc(N4CCCN(C)CC4)nc3n3c2sc2ccccc23)cn1
IC50 (second compound 0.0316 µM): > 10000 nM
IC50 (second compound 0.1 µM): > 10000 nM
IC50 (second compound 0.316 µM): > 10000 nM
IC50 (second compound 1 µM): 1880 nM
IC50 (second compound 3.16 µM): < 31.6 nM
IC50 (second compound 10 µM): < 31.6 nM
viability, T/C [1]: 68.1%
viability, T/C [2]: 77%
viability, T/C [3]: 76.9%
viability, T/C [4]: 92.9%
viability, T/C [5]: 99.9%
viability, T/C [6]: 87.7%
viability, T/C [7]: 70.1%
viability, T/C [8]: 84.2%
viability, T/C [9]: 67.1%
viability, T/C [10]: 80.6%
viability, T/C [11]: 83.5%
viability, T/C [12]: 69.3%
viability, T/C [13]: 60.3%
viability, T/C [14]: 81.4%
viability, T/C [15]: 55%
viability, T/C [16]: 62%
viability, T/C [17]: 71.2%
viability, T/C [18]: 52%
viability, T/C [19]: 48.1%
viability, T/C [20]: 52%
viability, T/C [21]: 57.7%
viability, T/C [22]: 51.4%
viability, T/C [23]: 54.6%
viability, T/C [24]: 41.5%
viability, T/C [25]: 44.4%
viability, T/C [26]: 46%
viability, T/C [27]: 46.2%
viability, T/C [28]: 58.4%
viability, T/C [29]: 42%
viability, T/C [30]: 49.7%
viability, T/C [31]: 39%
viability, T/C [32]: 19.4%
viability, T/C [33]: 39.9%
viability, T/C [34]: 46.8%
viability, T/C [35]: 32.8%
viability, T/C [36]: 0.33%

CC1COCCN1c1cc(-c2ccnn2C)c2ccnc(-c3ccn[nH]3)c2n1 (stereo unspecified) + Cc1cnc(CNC(=O)c2c(=O)c3ccc(N4CCCN(C)CC4)nc3n3c2sc2ccccc23)cn1
IC50 (second compound 0.0316 µM): 41.5 nM
IC50 (second compound 0.1 µM): < 31.6 nM
IC50 (second compound 0.316 µM): < 31.6 nM
IC50 (second compound 1 µM): < 31.6 nM
IC50 (second compound 3.16 µM): < 31.6 nM
IC50 (second compound 10 µM): < 31.6 nM
viability, T/C [1]: 53.5%
viability, T/C [2]: 37.8%
viability, T/C [3]: 40%
viability, T/C [4]: 32%
viability, T/C [5]: 34.6%
viability, T/C [6]: 29.9%
viability, T/C [7]: 48.8%
viability, T/C [8]: 51.1%
viability, T/C [9]: 34%
viability, T/C [10]: 41.5%
viability, T/C [11]: 32.2%
viability, T/C [12]: 24.4%
viability, T/C [13]: 44.8%
viability, T/C [14]: 46.4%
viability, T/C [15]: 39.4%
viability, T/C [16]: 34.7%
viability, T/C [17]: 32.8%
viability, T/C [18]: 22.7%
viability, T/C [19]: 42.9%
viability, T/C [20]: 35.2%
viability, T/C [21]: 34%
viability, T/C [22]: 37.4%
viability, T/C [23]: 25.3%
viability, T/C [24]: 22.9%
viability, T/C [25]: 32.8%
viability, T/C [26]: 37.4%
viability, T/C [27]: 31.4%
viability, T/C [28]: 26.8%
viability, T/C [29]: 21.7%
viability, T/C [30]: 19.2%
viability, T/C [31]: 25.4%
viability, T/C [32]: 21.5%
viability, T/C [33]: 20.9%
viability, T/C [34]: 24.8%
viability, T/C [35]: 10.3%
viability, T/C [36]: 8.1%
